Our source for the Kd values is US20230203098A1, “HUMAN TRANSFERRIN RECEPTOR BINDING PEPTIDE” (priority 2020, published 2023).

In general, Kd refers to the concentration at which binding is half-saturated.

SMILES strings stand for the structures. Where a SMILES comes first, the peptide text is derived from it. Bridges are numbered along the chain shown (N, C = ends). [ ]: non-standard residue; d: D form. NMePhe(3-Cl) = CN[C@@H](Cc1cccc(Cl)c1)C(=O)O; NMeW = CN[C@@H](Cc1c[nH]c2ccccc12)C(=O)O; NMeY = CN[C@@H](Cc1ccc(O)cc1)C(=O)O; Ahp(2) = CCCCC[C@H](N)C(=O)O; PEG4 = NCCOCCOCCOCCOCCC(=O)O; hLys = NCCCCC[C@H](N)C(=O)O; dOrn = NCCC[C@@H](N)C(=O)O; Dab = NCC[C@H](N)C(=O)O; Dap = NC[C@H](N)C(=O)O

transferrin receptor (hTfR), sequence (P02786 whole entry): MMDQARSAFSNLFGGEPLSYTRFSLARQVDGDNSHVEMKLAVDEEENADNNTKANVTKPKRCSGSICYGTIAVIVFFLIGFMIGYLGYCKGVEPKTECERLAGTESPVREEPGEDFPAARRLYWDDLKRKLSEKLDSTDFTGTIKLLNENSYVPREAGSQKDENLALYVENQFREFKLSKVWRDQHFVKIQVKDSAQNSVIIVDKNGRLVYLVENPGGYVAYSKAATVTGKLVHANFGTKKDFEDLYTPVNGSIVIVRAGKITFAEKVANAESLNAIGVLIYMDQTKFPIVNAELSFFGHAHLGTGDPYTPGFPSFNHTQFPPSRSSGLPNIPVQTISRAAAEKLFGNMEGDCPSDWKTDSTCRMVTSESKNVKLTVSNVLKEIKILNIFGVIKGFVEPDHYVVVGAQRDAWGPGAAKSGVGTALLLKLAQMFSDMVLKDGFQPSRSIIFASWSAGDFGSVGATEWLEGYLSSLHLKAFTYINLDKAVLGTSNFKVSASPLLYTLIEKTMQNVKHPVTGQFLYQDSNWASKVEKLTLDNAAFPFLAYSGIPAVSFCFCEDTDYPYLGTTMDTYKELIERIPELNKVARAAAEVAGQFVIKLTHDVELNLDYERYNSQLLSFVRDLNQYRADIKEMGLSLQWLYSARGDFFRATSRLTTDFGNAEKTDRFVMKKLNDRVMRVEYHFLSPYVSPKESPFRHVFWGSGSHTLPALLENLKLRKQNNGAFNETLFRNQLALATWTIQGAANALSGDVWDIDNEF

One experiment has as its target transferrin receptor (hTfR) (Homo sapiens, UniProt P02786). The experiment in a line: Intermolecular interaction evaluation test between transferrin receptor (hTfR) and peptide by surface plasmon resonance (SPR). Format: binding.
Settings: not given
The gist of the method: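 Receptor was Ni-captured and EDC/NHS-fixed on an NTA chip; running buffer HEPES pH 8.0 with NaCl, Tween 20, BSA and 1.0% DMSO.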
Background: SPR reads the build-up and loss of mass on a sensor chip optically.
In turn, `CC[C@H](C)[C@@H]1NC(=O)[C@H](Cc2ccc(OC)cc2)NC(=O)[C@H](Cc2ccc(O)cc2)NC(=O)[C@H](CC(N)=O)NC(=O)[C@H](Cc2c[nH]c3ccccc23)N(C)C(=O)[C@H](C(C)C)NC(=O)[C@H](Cc2cccc(Cl)c2)N(C)C(=O)[C@H](C(C)C)NC(=O)[C@H](C)NC(=O)CSC[C@@H](C(=O)NCC(=O)NCC(=O)NCC(=O)NCC(=O)N[C@@H](CO)C(=O)N[C@@H](CO)C(=O)N[C@@H](CS)C(N)=O)NC(=O)[C@H](Cc2ccc(O)cc2)N(C)C(=O)[C@H](Cc2ccccc2)NC(=O)[C@@H](CCCNC(=N)N)NC(=O)[C@H](CN)NC(=O)[C@H]([C@@H](C)CC)NC1=O` [compound 367] showed a Kd of 1 to 100 nM.

Turning to `CC[C@H](C)[C@@H]1NC(=O)[C@H](Cc2ccc(OC)cc2)NC(=O)[C@H](Cc2ccc(O)cc2)NC(=O)[C@H](CC(N)=O)NC(=O)[C@H](Cc2c[nH]c3ccccc23)N(C)C(=O)[C@H](C(C)C)NC(=O)[C@H](Cc2cccc(Cl)c2)N(C)C(=O)[C@H](C(C)C)NC(=O)[C@H](C)NC(=O)CSC[C@@H](C(=O)NCC(=O)NCC(=O)NCC(=O)NCC(=O)N[C@@H](CO)C(=O)N[C@@H](CO)C(=O)N[C@@H](CS)C(N)=O)NC(=O)[C@H](Cc2ccc(O)cc2)N(C)C(=O)[C@H](Cc2ccccc2)NC(=O)[C@@H](CCCNC(=N)N)NC(=O)[C@H](CCCCCN)NC(=O)[C@H]([C@@H](C)CC)NC1=O` [compound 370], the Kd fell in the range of 1 to 100 nM.

The same experiment, now with this note: surface plasmon resonance, hTfR; read-out: KD value for hTfR by SPR (class symbol).
As to `CCCCC[C@@H]1NC(=O)[C@H]([C@@H](C)CC)NC(=O)[C@H]([C@@H](C)CC)NC(=O)[C@H](Cc2ccc(OC)cc2)NC(=O)[C@H](Cc2ccc(O)cc2)NC(=O)[C@H](CC(N)=O)NC(=O)[C@H](Cc2c[nH]c3ccccc23)N(C)C(=O)[C@H](C(C)C)NC(=O)[C@H](Cc2cccc(Cl)c2)N(C)C(=O)[C@H](C(C)C)NC(=O)[C@H](C)NC(=O)CSC[C@@H](C(=O)NCCOCCOCCOCCOCCC(N)=O)NC(=O)[C@H](Cc2ccc(O)cc2)N(C)C(=O)[C@H](Cc2ccccc2)NC(=O)[C@@H](CCCNC(=N)N)NC1=O` [compound 362] ({CH2CO}-AV[NMePhe(3-Cl)]V[NMeW]NYY(Me)II[Ahp(2)][dR]F[NMeY]C[PEG4]-NH2; thioether N-15), the Kd was 1 to 100 nM.

Turning to `CC[C@H](C)[C@@H]1NC(=O)[C@H](Cc2ccc(OC)cc2)NC(=O)[C@H](Cc2ccc(O)cc2)NC(=O)[C@H](CC(N)=O)NC(=O)[C@H](Cc2c[nH]c3ccccc23)N(C)C(=O)[C@H](C(C)C)NC(=O)[C@H](Cc2cccc(Cl)c2)N(C)C(=O)[C@H](C(C)C)NC(=O)[C@H](C)NC(=O)CSC[C@@H](C(N)=O)NC(=O)[C@H](Cc2ccc(O)cc2)N(C)C(=O)[C@H](Cc2ccccc2)NC(=O)[C@@H](CCCNC(=N)N)NC(=O)[C@H](CCC(=O)NCCOCCOCCOCCOCCOCCOCCOCCOC)NC(=O)[C@H]([C@@H](C)CC)NC1=O` [compound 363], the Kd lay in the range of 1 to 100 nM.

Turning to `CC[C@H](C)[C@@H]1NC(=O)[C@H](Cc2ccc(OC)cc2)NC(=O)[C@H](Cc2ccc(O)cc2)NC(=O)[C@H](CC(N)=O)NC(=O)[C@H](Cc2c[nH]c3ccccc23)N(C)C(=O)[C@H](C(C)C)NC(=O)[C@H](Cc2cccc(Cl)c2)N(C)C(=O)[C@H](C(C)C)NC(=O)[C@H](C)NC(=O)CSC[C@@H](C(N)=O)NC(=O)[C@H](Cc2ccc(O)cc2)N(C)C(=O)[C@H](Cc2ccccc2)NC(=O)[C@@H](CCCNC(=N)N)NC(=O)C2(CCN(C)CC2)NC(=O)[C@H]([C@@H](C)CC)NC1=O` [compound 364], the Kd lay within 1 to 100 nM.

As for `CC[C@H](C)[C@@H]1NC(=O)[C@H](Cc2ccc(OC)cc2)NC(=O)[C@H](Cc2ccc(O)cc2)NC(=O)[C@H](CC(N)=O)NC(=O)[C@H](Cc2c[nH]c3ccccc23)N(C)C(=O)[C@H](C(C)C)NC(=O)[C@H](Cc2cccc(Cl)c2)N(C)C(=O)[C@H](C(C)C)NC(=O)[C@H](C)NC(=O)CSC[C@@H](C(=O)NCCOCCOCCOCCOCCC(N)=O)NC(=O)[C@H](Cc2ccc(O)cc2)N(C)C(=O)[C@H](Cc2ccccc2)NC(=O)[C@@H](CCCNC(=N)N)NC(=O)[C@H](CN)NC(=O)[C@H]([C@@H](C)CC)NC1=O` [compound 365] ({CH2CO}-AV[NMePhe(3-Cl)]V[NMeW]NYY(Me)II[Dap][dR]F[NMeY]C[PEG4]-NH2; thioether N-15), the Kd was in the range of 1 to 100 nM.

As to `CC[C@H](C)[C@@H]1NC(=O)[C@H](Cc2ccc(OC)cc2)NC(=O)[C@H](Cc2ccc(O)cc2)NC(=O)[C@H](CC(N)=O)NC(=O)[C@H](Cc2c[nH]c3ccccc23)N(C)C(=O)[C@H](C(C)C)NC(=O)[C@H](Cc2cccc(Cl)c2)N(C)C(=O)[C@H](C(C)C)NC(=O)[C@H](C)NC(=O)CSC[C@@H](C(=O)NCCOCCOCCOCCOCCC(N)=O)NC(=O)[C@H](Cc2ccc(O)cc2)N(C)C(=O)[C@H](Cc2ccccc2)NC(=O)[C@@H](CCCNC(=N)N)NC(=O)[C@H](CCN)NC(=O)[C@H]([C@@H](C)CC)NC1=O` [compound 366] ({CH2CO}-AV[NMePhe(3-Cl)]V[NMeW]NYY(Me)II[Dab][dR]F[NMeY]C[PEG4]-NH2; thioether N-15), the Kd is 1 to 100 nM.

As for `CC[C@H](C)[C@@H]1NC(=O)[C@H](Cc2ccc(OC)cc2)NC(=O)[C@H](Cc2ccc(O)cc2)NC(=O)[C@H](CC(N)=O)NC(=O)[C@H](Cc2c[nH]c3ccccc23)N(C)C(=O)[C@H](C(C)C)NC(=O)[C@H](Cc2cccc(Cl)c2)N(C)C(=O)[C@H](C(C)C)NC(=O)[C@H](C)NC(=O)CSC[C@@H](C(=O)NCCOCCOCCOCCOCCC(N)=O)NC(=O)[C@H](Cc2ccc(O)cc2)N(C)C(=O)[C@H](Cc2ccccc2)NC(=O)[C@@H](CCCNC(=N)N)NC(=O)[C@@H](CCCN)NC(=O)[C@H]([C@@H](C)CC)NC1=O` [compound 368] ({CH2CO}-AV[NMePhe(3-Cl)]V[NMeW]NYY(Me)II[dOrn][dR]F[NMeY]C[PEG4]-NH2; thioether N-15), the Kd fell in the range of 1 to 100 nM.

Consider `CC[C@H](C)[C@@H]1NC(=O)[C@H](Cc2ccc(OC)cc2)NC(=O)[C@H](Cc2ccc(O)cc2)NC(=O)[C@H](CC(N)=O)NC(=O)[C@H](Cc2c[nH]c3ccccc23)N(C)C(=O)[C@H](C(C)C)NC(=O)[C@H](Cc2cccc(Cl)c2)N(C)C(=O)[C@H](C(C)C)NC(=O)[C@H](C)NC(=O)CSC[C@@H](C(=O)NCCOCCOCCOCCOCCC(N)=O)NC(=O)[C@H](Cc2ccc(O)cc2)N(C)C(=O)[C@H](Cc2ccccc2)NC(=O)[C@@H](CCCNC(=N)N)NC(=O)[C@H](CCCCCN)NC(=O)[C@H]([C@@H](C)CC)NC1=O` [compound 369] ({CH2CO}-AV[NMePhe(3-Cl)]V[NMeW]NYY(Me)II[hLys][dR]F[NMeY]C[PEG4]-NH2; thioether N-15), for which the Kd was in the range of 1 to 100 nM.

As for `CC[C@H](C)[C@@H]1NC(=O)[C@H](Cc2ccc(OC)cc2)NC(=O)[C@H](Cc2ccc(O)cc2)NC(=O)[C@H](CC(N)=O)NC(=O)[C@H](Cc2c[nH]c3ccccc23)N(C)C(=O)[C@H](C(C)C)NC(=O)[C@H](Cc2cccc(Cl)c2)N(C)C(=O)[C@H](C(C)C)NC(=O)[C@H](C)NC(=O)CSC[C@@H](C(N)=O)NC(=O)[C@H](Cc2ccc(O)cc2)N(C)C(=O)[C@H](Cc2ccccc2)NC(=O)[C@H](CCCNC(=N)N)NC(=O)[C@H](CCCCN)NC(=O)[C@H]([C@@H](C)CC)NC1=O` [compound 371], the Kd was < 1 nM.

On to `CC[C@H](C)[C@@H]1NC(=O)[C@H](Cc2ccc(OC)cc2)NC(=O)[C@H](Cc2ccc(O)cc2)NC(=O)[C@H](CC(N)=O)NC(=O)[C@H](Cc2c[nH]c3ccccc23)N(C)C(=O)[C@H](C(C)C)NC(=O)[C@H](Cc2cccc(Cl)c2)N(C)C(=O)[C@H](C(C)C)NC(=O)[C@H](C)NC(=O)CSC[C@@H](C(N)=O)NC(=O)[C@H](Cc2ccc(O)cc2)N(C)C(=O)[C@H](Cc2ccccc2)NC(=O)[C@@H](C)NC(=O)[C@H](CCCCN)NC(=O)[C@H]([C@@H](C)CC)NC1=O` [compound 372], for which the Kd lay in the range of 1 to 100 nM.
